The results in this text go back to US9233108B2 (ALMIRALL, S.A., priority 2011, dated 2016).

Assay [1] addresses human muscarinic M3 receptors (Homo sapiens (Human), UniProt P20309). Briefly: Human muscarinic M3 receptor binding assay. Particulars: CHO-K1 cell membranes, [3H]-NMS radioligand. As to the method:
Test 2: Human Muscarinic M1, M2, M3, M4 and M5 receptors binding assays
The study of binding to human muscarinic M1, M2, M3, M4 and M5 receptors was performed using commercial membranes (Perkin Elmer) prepared from CHO-K1 cells. Radioligand binding experiments were conducted in 96 polypropylene well plates in a total volume of 200 μl. All reagents were dissolved in assay binding buffer (PBS with calcium and magnesium, SIGMA), except compounds that were dissolved in DMSO 100%. Non-specific binding (NSB) was measured in the presence of 1 μM atropine. [3H]-NMS was used as the radioligand at a concentration of 1 nM for M2, M3 and M5 and 0.3 nM for M1 and M4. [3H]-NMS and antagonists were incubated with membranes that express human muscarinic receptors M1, M2, M3, M4 and M5 at concentrations of 8.1, 10, 4.9, 4.5 and 4.9 μg/well, respectively.
After an incubation period of two hours with gentle shaking, 150 μl of the reaction mix were transferred to 96 GF/C filter plates (Millipore), previously treated with wash buffer (Tris 50 mM; NaCl 100 mM; pH: 7.4), containing 0.05% PEI (Sigma) during one hour. Bound and free [3H]-NMS were separated by rapid vacuum filtration in a manifold from Millipore and washed four times with ice cold wash buffer. After drying 30 min, 30 μl of OPTIPHASE Supermix were added to each well and radioactivity quantified using a Microbeta microplate scintillation counter.
The affinity of each test compound to the receptors was determined by using ten different concentrations ran in duplicate. IC50s were calculated using Activity Base software from IDBS and the four parameters-log equation.

In assay [2] the target is human adrenergic beta2 receptors (Homo sapiens (Human), UniProt P07550). Briefly: Human adrenergic β2 receptor binding assay. The note with it: Sf9 cell membranes, 3H-CGP12177 radioligand. As to the method:
Test 1: Human Adrenergic β1 and β2 Receptor Binding Assays
The study of binding to human adrenergic beta1 and beta2 receptors was performed using commercial membranes prepared from Sf9 cells where they are overexpressed (Perkin Elmer). The membrane suspensions (16 μg/well for beta1 and 5 μg/well for beta2) in assay buffer (75 mM Tris/HCl with 12.5 mM MgCl2 and 2 mM EDTA pH=7.4) were incubated with 0.14 or 0.6 nM of 3H-CGP12177 (Amersham) for beta 1 and beta 2 receptors respectively in a final volume of 250 μl, in GFC Multiscreen 96 well plates (Millipore) previously treated with assay buffer containing 0.3% PEI (Sigma). Non specific binding was measured in the presence of 1 μM propanolol. Incubation was maintained for 60 minutes at room temperature and with gentle shaking. The binding reactions were terminated by filtration and washing with 2.5 volumes of Tris/HCl 50 mM pH=7.4. The affinity of each test compound to the receptor was determined by using ten different concentrations ran in duplicate. IC50s were calculated using Activity Base software from IDBS and the four parameters-log equation.

Chain of human muscarinic M3 receptors (P20309 whole entry): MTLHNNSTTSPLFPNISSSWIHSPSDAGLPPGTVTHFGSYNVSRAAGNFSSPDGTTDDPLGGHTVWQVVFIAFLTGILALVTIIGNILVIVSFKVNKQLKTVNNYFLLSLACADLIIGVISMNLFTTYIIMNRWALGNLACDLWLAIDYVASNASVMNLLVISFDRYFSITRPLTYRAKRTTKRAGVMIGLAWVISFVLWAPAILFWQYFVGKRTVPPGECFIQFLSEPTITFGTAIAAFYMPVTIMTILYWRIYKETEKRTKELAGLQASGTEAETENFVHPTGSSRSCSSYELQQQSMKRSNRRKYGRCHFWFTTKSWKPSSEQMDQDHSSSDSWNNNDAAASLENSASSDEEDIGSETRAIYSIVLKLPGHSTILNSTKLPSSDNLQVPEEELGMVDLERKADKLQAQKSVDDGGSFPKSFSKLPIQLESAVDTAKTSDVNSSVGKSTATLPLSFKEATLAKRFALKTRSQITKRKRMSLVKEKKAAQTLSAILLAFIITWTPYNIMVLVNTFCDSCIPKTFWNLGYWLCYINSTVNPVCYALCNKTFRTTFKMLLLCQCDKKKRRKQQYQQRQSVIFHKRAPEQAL

With `COc1cc(-c2noc(CCCN(C)[C@H]3CC[C@H](OC(=O)C(O)(c4cccs4)c4cccs4)CC3)n2)c(Cl)cc1CNC[C@H](O)c1ccc(O)c2[nH]c(=O)ccc12` (relative stereo) [Example 9, trans-4-[(3-{3-[2-chloro-4-({[(2R)-2-hydroxy-2-(8-hydroxy-2-oxo-1,2-dihydroquinolin-5-yl)ethyl]amino}methyl)-5-methoxyphenyl]-1,2,4-oxadiazol-5-yl}propyl)(methyl)amino]cyclohexylhydroxy(di-2-thienyl)acetate dihydrofluoride], the results for the IC50 in assay [1] and in assay [2] were 0.2 nM and 2.2 nM, respectively.

Turning to `CN(CCCn1c(=O)oc2cc(CCNC[C@H](O)c3ccc(O)c4[nH]c(=O)ccc34)ccc21)[C@H]1CC[C@H](OC(=O)C(O)(c2cccs2)c2cccs2)CC1` (relative stereo) [Example 19, trans-4-[{3-[6-(2-{[(2R)-2-hydroxy-2-(8-hydroxy-2-oxo-1,2-dihydroquinolin-5-yl)ethyl]amino}ethyl)-2-oxo-1,3-benzoxazol-3(2H)-yl]propyl}(methyl)amino]cyclohexylhydroxy(di-2-thienyl)acetate dihydrofluoride], the half-inhibitory concentration (IC50) was determined as 0.8 nM in assay [1] and 62 nM in assay [2].

Regarding `CC(Cc1ccc(OCC(=O)NCCN[C@H]2CC[C@H](OC(=O)C(O)(c3cccs3)c3cccs3)CC2)cc1)NC[C@H](O)c1ccc(O)c2[nH]c(=O)ccc12` (relative stereo) [Example 20], the half-inhibitory concentration (IC50) was found to be 3.6 nM in assay [1] and 3.1 nM in assay [2].

“trans-4-[(3-{3-[4-({[(2R)-2-hydroxy-2-(8-hydroxy-2-oxo-1,2-dihydroquinolin-5-yl)ethyl]amino}methyl)phenyl]-1,2,4-oxadiazol-5-yl}propyl)(methyl)amino]cyclohexylhydroxy(di-2-thienyl)acetate dihydrofluoride [Example 5]”: the 50% inhibitory concentration (IC50) in assay [1] stood at 0.4 nM; in assay [2], 2.7 nM.

Turning to “trans-4-[{3-[5-({[(2R)-2-hydroxy-2-(8-hydroxy-2-oxo-1,2-dihydroquinolin-5-yl)ethyl]amino}methyl)-2-oxo-2,3-dihydro-1H-benzimidazol-1-yl]propyl}(methyl)amino]cyclohexylhydroxy(di-2-thienyl)acetate dihydrofluoride [Example 2]”, the concentration for half-maximal inhibition (IC50) in assay [1] was found to be 0.4 nM; in assay [2] it was 120 nM.

“trans-4-[{3-[6-({[(2R)-2-hydroxy-2-(8-hydroxy-2-oxo-1,2-dihydroquinolin-5-yl)ethyl]amino}methyl)-2-oxo-1,3-benzothiazol-3(2H)-yl]propyl}(methyl)amino]cyclohexylhydroxy(di-2-thienyl)acetate dihydrofluoride [Example 11]”: the figures for the IC50 in assay [1] and in assay [2] were 0.5 nM and 4.2 nM, respectively.
